From patent US9944721B2, “Polysialic acid and use for treatment of neurodegenerative and neuroinflammatory diseases” (RHEINISCHE FRIEDRICH-WILHELMS UNIVERSITÄT BONN, priority 2013, dated 2018) come the findings set out here.

This assay relates to human microglia stimulated with neural debris or Drusen-like debris. The assay can be described thus: Debris-induced superoxide release of human microglia (macular degeneration culture model, DHE). It counts as cell-based. On the procedure: Second, effect of PSA-20 on microglia stimulated with neural cellular debris was analyzed. Drusen containing cellular debris is one characteristics of senile macular degeneration. To study the effect of degenerated material on the retinal microglia, we prepared neural debris by hypotonic and mechanic lysis of human neurons derived from induced pluripotent stem cells. Then, we treated the human microglial line derived from induced pluripotent stem cells and analyzed the effect of PSA-20. Superoxide release was determined by the fluorescent dye DHE. […] Cells were fixed with 4% paraformaldehyde plus 0.25% glutaraldehyde and analyzed by confocal microscopy. For the quantification of DHE staining intensity six pictures of each experiment were obtained and analyzed by ImageJ software (NIH). […] Cells were fixed and the intensity of DHE was quantified by confocal microscopy. […]
To obtain Drusen-like debris from the retina, human retinal pigment epithelium ARPE-19 cells were treated with 80 nM okadaic acid for 24 hours at 37° C. and 5% CO2, centrifuged, washed three times with PBS and the pellet was frozen at −20° C. […] Cells were fixed and the release of superoxide was quantified by the intensity of the DHE dye. […]

Turning to poly-(α(2→8)Neu5Ac)n [PSA-20], the relative superoxide production (Drusen-like debris from ARPE-19 cells, 10 μg/ml PSA-20, 30 minutes, without PSA-20 1.38+/−0.02, FIG. 7C) is 0.92+/−0.22. The “cellular neural debris induced superoxide production” value (neural debris from human neurons, FIG. 7B) is “prevented”.
